# Counter-ions that a name gives are not always drawn.
# System: jejunum
# Assay: Transcriptional profiling on Affymetrix GeneChips, single dose, naïve mice: jejunum
# Format: in vivo, C57BL/6 mice
# Method: Treated mice were sacrificed at 2, 7, or 12 hours. Tissues (liver, spleen, kidney, jejunum, cortex, hippocampus, striatum and whole blood) were collected and analyzed by transcriptional profiling on mouse Affymetrix GeneChips.
# Tissues (liver, spleen, kidney, jejunum, cortex, hippocampus, striatum and whole blood) were collected and analyzed by transcriptional profiling on mouse Affymetrix GeneChips.
# Animals were exposed to CO2 and whole blood collected via cardiac puncture. Two 100 μl aliquots of whole blood were collected in 1.5 mL microcentrifuge tubes and snap frozen in liquid nitrogen. Peripheral (liver, spleen, kidney and jejunum) and CNS brain (cerebellum, hippocampus, striatum and cortex) tissues were harvested and snap frozen in liquid nitrogen, with special care taken to collect tissues of similar size and from the same location. All samples were stored at −80° C. until RNA extraction was conducted.
# For RNA preparation, frozen tissues were placed in 2 mL RNAse-free 96-well blocks with 1.5 mL QIAzol Lysis Reagent (QIAgen) and a 3.2 mm stainless steel bead (BioSpec Products, Bartlesville, Okla.). Tissues were disrupted for four cycles of 45 seconds in a Mini-Beadbeater (Biospec Products). RNA was extracted in chloroform and the aqueous phase was mixed with an equal volume of 70% ethanol. Extracted RNA was applied to RNeasy 96 plates and purified by the spin method according to the manufacturer's protocol (RNeasy 96 Universal Tissue Protocol, QIAgen, Hilden Germany).
# Automated sample amplifications and biotin labelings were carried out using the NuGEN Ovation RNA Amplification system V2 (Cat #3100), Ovation WB reagent (Cat #1300) and Encore Biotin module (Cat #4200) (NuGEN Technologies, Inc, San Carlos, Calif.) according to manufacturer's recommendations using an Arrayplex automated liquid handler (Beckman Coulter, Indianapolis, Ind.). Two micrograms of biotin labeled sscDNA probe were hybridized to Affymetrix GeneChip Affymetrix HT_MG-430_PM plate arrays with modified conditions as described in Allaire et al. Washing and staining of the hybridized arrays were completed as described in the GeneChip Expression analysis technical manual for HT plate arrays using the Genechip® Array Station (Affymetrix, Santa Clara, Calif.) with modifications as described in Allaire et al. The processed GeneChip® plate arrays were scanned using GeneTitan scanner (Affymetrix, Santa Clara, Calif.).
# Affymetrix scans were subject to quality control (QC) measures. These tests included a visual inspection of the distribution of raw signal intensities and an assessment of RNA degradation, relative log expression (RLE), and normalized unsealed standard error (NUSE). All sample scans that passed these QC metrics were included in the analysis.
# All CEL files were subjected to GC-content-based Robust Multi-array Average (GCRMA) normalization (version 2.20.0) (Irizarry R A, et al. Nucleic Acids Res 2003; 31:e15; Li C, et al. Genome Biol 2001; 2:[…]0032). Expression levels were log (base 2) transformed.
# All calculations and analyses were carried out using R (version 2.11.1) and Bioconductor computational tools (Gentleman R. Springer Science+Business Media 2005).
# [1] = 100DMF-vs-Veh or 100MMF-vs-Veh, 12 h
smiles,measurement,setting,value
"COC(=O)/C=C/C(=O)O [MMF, monomethyl fumarate]",FC Abcc3 (1428988_PM_at),[1],2.10
same,FC Acsm5 (1437662_PM_at),[1],1.95
same,FC Akr1b8 (1448894_PM_at),[1],18.78
same,FC Akr1c12 (1450455_PM_s_at),[1],1.76
same,FC Akr1c19 (1455454_PM_at),[1],3.53
same,FC Blvrb (1451386_PM_at),[1],1.54
same,FC Cbr3 (1427912_PM_at),[1],32.24
same,FC Ces1e (1419510_PM_at),[1],2.77
same,FC Ces1f (1424266_PM_s_at),[1],6.54
same,FC Ces1g (1449486_PM_at),[1],9.45
same,FC G6pd2 (1422327_PM_s_at),[1],1.83
same,FC Gpx2 (1449279_PM_at),[1],1.54
same,FC Gsr (1421816_PM_at),[1],2.67
same,FC Gss (1441931_PM_x_at),[1],1.55
same,FC Gsta2 (1421040_PM_a_at),[1],6.66
same,FC Gsta2 (1421041_PM_s_at),[1],2.09
same,FC Gsta3 (1423436_PM_at),[1],10.80
same,FC Gsta3 (1423437_PM_at),[1],7.97
same,FC Gstm1 (1425627_PM_x_at),[1],4.61
same,FC Gstm1 (1448330_PM_at),[1],4.27
same,FC Gstm3 (1427473_PM_at),[1],2.14
same,FC Gstm3 (1427474_PM_s_at),[1],1.58
same,FC Gstm4 (1424835_PM_at),[1],5.43
same,FC Gstm6 (1422072_PM_a_at),[1],2.19
same,FC Nqo1 (1423627_PM_at),[1],2.34
same,FC Pir (1429001_PM_at),[1],4.19
same,FC Setd4 (1425239_PM_at),[1],1.60
same,FC Setd4 (1460373_PM_a_at),[1],1.56
same,FC Slc5a4b (1422757_PM_at),[1],2.16
same,FC Ugt2b5 (1419622_PM_at),[1],5.00
same,FC Ugt2b35 (1439624_PM_at),[1],2.45
same,FC Ugt2b36 (1455595_PM_at),[1],3.03
same,FC 6-Sep (1424181_PM_at),"100MMF-vs-Veh, 2 h",1.56
same,FC 1443118_PM_at,"100MMF-vs-Veh, 2 h",1.69
same,FC 1444265_PM_at,"100MMF-vs-Veh, 2 h",1.93
same,FC 1445980_PM_at,"100MMF-vs-Veh, 2 h",2.43
same,FC 1446045_PM_at,"100MMF-vs-Veh, 2 h",1.69
same,FC 1447411_PM_at,"100MMF-vs-Veh, 2 h",2.81
same,FC 1459091_PM_at,"100MMF-vs-Veh, 2 h",2.02
same,FC 2010002N04Rik (1423306_PM_at),"100MMF-vs-Veh, 2 h",1.57
same,FC 9030409G11Rik (1434169_PM_at),"100MMF-vs-Veh, 2 h",1.52
same,FC 9130221J17Rik (1443159_PM_at),"100MMF-vs-Veh, 2 h",2.36
same,FC Acss2 (1446542_PM_at),"100MMF-vs-Veh, 2 h",1.84
same,FC Akr1b8 (1448894_PM_at),"100MMF-vs-Veh, 2 h",8.24
same,FC Akr1c19 (1455454_PM_at),"100MMF-vs-Veh, 2 h",2.33
same,FC Areg (1421134_PM_at),"100MMF-vs-Veh, 2 h",2.71
same,FC Blvrb (1451386_PM_at),"100MMF-vs-Veh, 2 h",1.57
same,FC Bmp2 (1423635_PM_at),"100MMF-vs-Veh, 2 h",−1.55
same,FC Cbr1 (1460196_PM_at),"100MMF-vs-Veh, 2 h",1.53
same,FC Cbr3 (1427912_PM_at),"100MMF-vs-Veh, 2 h",55.49
same,FC Ces1f (1424266_PM_s_at),"100MMF-vs-Veh, 2 h",2.71
same,FC Ces1g (1449486_PM_at),"100MMF-vs-Veh, 2 h",3.68
same,FC Dnase2a (1430135_PM_at),"100MMF-vs-Veh, 2 h",1.79
same,FC Dppa5a (1416552_PM_at),"100MMF-vs-Veh, 2 h",2.64
same,FC Ereg (1419431_PM_at),"100MMF-vs-Veh, 2 h",2.00
same,FC Ero1l (1419030_PM_at),"100MMF-vs-Veh, 2 h",1.90
same,FC Esd (1441604_PM_at),"100MMF-vs-Veh, 2 h",1.52
same,FC Figf (1438953_PM_at),"100MMF-vs-Veh, 2 h",1.63
same,FC G6pd2 (1422327_PM_s_at),"100MMF-vs-Veh, 2 h",1.74
same,FC Gabarapl1 (1416418_PM_at),"100MMF-vs-Veh, 2 h",1.52
same,FC Gclc (1424296_PM_at),"100MMF-vs-Veh, 2 h",3.99
same,FC Gclc (1455959_PM_s_at),"100MMF-vs-Veh, 2 h",3.06
same,FC Gsr (1421816_PM_at),"100MMF-vs-Veh, 2 h",2.19
same,FC Gss (1441931_PM_x_at),"100MMF-vs-Veh, 2 h",1.92
same,FC Gss (1448273_PM_at),"100MMF-vs-Veh, 2 h",1.69
same,FC Gsta3 (1423436_PM_at),"100MMF-vs-Veh, 2 h",3.23
same,FC Gsta3 (1423437_PM_at),"100MMF-vs-Veh, 2 h",3.64
same,FC Gstm1 (1416416_PM_x_at),"100MMF-vs-Veh, 2 h",2.38
same,FC Gstm1 (1425627_PM_x_at),"100MMF-vs-Veh, 2 h",2.70
same,FC Gstm1 (1448330_PM_at),"100MMF-vs-Veh, 2 h",2.47
same,FC Gstm3 (1427473_PM_at),"100MMF-vs-Veh, 2 h",2.51
same,FC Gstm3 (1427474_PM_s_at),"100MMF-vs-Veh, 2 h",1.57
same,FC Hfe 1422645_PM_at,"100MMF-vs-Veh, 2 h",1.73
same,FC Htatip2 (1451814_PM_a_at),"100MMF-vs-Veh, 2 h",1.53
same,FC LOC100504040 (1457279_PM_at),"100MMF-vs-Veh, 2 h",2.24
same,FC Lpin2 (1452837_PM_at),"100MMF-vs-Veh, 2 h",1.61
same,FC Lrp8 (1440882_PM_at),"100MMF-vs-Veh, 2 h",2.23
same,FC Mafg (1434054_PM_at),"100MMF-vs-Veh, 2 h",1.95
same,FC Mafg (1448916_PM_at),"100MMF-vs-Veh, 2 h",2.01
same,FC Nqo1 (1423627_PM_at),"100MMF-vs-Veh, 2 h",2.16
same,FC Osgin1 (1424022_PM_at),"100MMF-vs-Veh, 2 h",1.98
same,FC Prr5l (1452834_PM_at),"100MMF-vs-Veh, 2 h",−1.64
same,FC Prss8 (1418320_PM_at),"100MMF-vs-Veh, 2 h",2.41
same,FC Setd4 (1425239_PM_at),"100MMF-vs-Veh, 2 h",2.11
same,FC Setd4 (1435405_PM_at),"100MMF-vs-Veh, 2 h",1.93
same,FC Setd4 (1460373_PM_a_at),"100MMF-vs-Veh, 2 h",1.87
